The structures appear in SMILES notation. Entries after “also recorded” stand apart in the source; their conditions may differ.

The series in a line: Solubility observations in D2O / water. The class given is physicochemical. How it is done: The supernatants were characterized by DOSY NMR and UV-Vis. ^1H-NMR was used to observe the amount of drug loaded into the RNTs at various time points. All the NMR experiments were conducted on a Varian Direct Drive 600 MHz spectrometer with a dual broadband probe. UV-vis spectra were recorded on an Agilent 8453. After this series of spectral analyses were completed, CD3OD was evaporated using a stream of nitrogen and replaced with the same volume of deuterated water (D2O).
Each solution (3 mL) was placed in a 1 cm×1 cm cuvette for UV-Vis experiments. In another series of experiments the solutions were prepared at the same concentration in D2O and analyzed by UV-Vis spectroscopy.

For `C[C@@H]1C[C@H]2[C@@H]3CCC4=CC(=O)C=C[C@]4(C)[C@@]3(F)[C@@H](O)C[C@]2(C)[C@@]1(O)C(=O)CO` [DEX, dexamethasone], the solubility in water entry was “insoluble; also recorded: precipitates in water”.

Values taken from US20120171121A1, “Rosette Nanotubes as Drug Delivery Agents” (Brown University, priority 2011, published 2012).
